# Source: patent US20210180138A1, “METHODS FOR PROGNOSIS AND TREATMENT OF SOLID TUMORS” (CUREWIZE HEALTH LTD., priority 2017, published 2021)
# Experiments:
# [1] = tested on: colon cancer (Caco-2) cell line; experiment: Cell viability, XTT tetrazolium colorimetric assay; assay type: cell-based; conditions: 24 hours, 1 nM, 10 nM and 100 nM, vs DMSO control
# Protocol: (§1) FK866 is a potent NAMPT inhibitor that causes the depletion of intracellular NAD+ levels in the cell and ultimately induces apoptosis and cell death. To characterize the effect of FK866 on prostate cancer (PC-3), colon cancer (Caco-2) and breast cancer (MCF7) cell lines, the effects of FK866 on cell death were evaluated. Cells were either control cells, treated with DMSO only, or were treated for 24 hours with 1 nanomolar (nM), 10 nM and 100 nM of FK866, and cell viability was measured using an XTT tetrazolium colorimetric assay.
# [2] = tested on: prostate cancer (PC-3) cell line; experiment: Cell viability, XTT tetrazolium colorimetric assay; assay type: cell-based; conditions: 24 hours, 1 nM, 10 nM and 100 nM, vs DMSO control
# Protocol: as §1
# [3] = tested on: breast cancer (MCF7) cell line; experiment: Cell viability, XTT tetrazolium colorimetric assay; assay type: cell-based; conditions: 24 hours, 1 nM, 10 nM and 100 nM, vs DMSO control
# Protocol: as §1
# [4] = tested on: prostate cancer PC3 cell line; experiment: In-vivo xenograft model, sensitivity to FK866 by miR-451 expression; set-up: species or system mice; conditions: for change in tumor growth between non-treated and treated group: 15 mg/kg once a day for 5 days repeated weekly
# Protocol: The effect of miR-451 expression levels on efficacy of NAMPT inhibitor was evaluated in an in-vivo xenograft mouse model as in Example 4A. The sensitivity of each prostate cancer cell line (miR-451, antagomiR-451 and scramble miR control) to FK866 treatment was examined in vivo. Twenty mice were injected with each cell line and were divided into two groups: 10 mice were treated with FK866 (15 mg/kg) once a day for 5 days repeated weekly and 10 served as controls, in which no NAMPT inhibitor was injected. The volume of the tumors was measured daily and mice were treated with FK866 from the day all tumors were clinically evident. Treatment with the drug started from day 13 and within 5 days of treatment a change in tumor size was observed between the antagomiR-451 group treated with FK866 and the antagomiR-451 receiving no treatment (FIG. 5A).
# miR-451 [5] = experiment: miR-451 expression by RT-qPCR in stable transfected lines; assay type: cell-based
# Protocol: The effect of miR-451 expression level on prostate cancer (PC-3), and breast cancer (MCF7) cell line tumor cells was evaluated in-vitro. Stable lines of each malignancy expressing miR-451 mimic and antagomiR-451 were obtained and transfected as in example 1. miR-451 expression levels in each cell line were validated by quantitative Real Time PCR (RT-qPCR). Total RNA was isolated from 10^7 cells using Qiagen RNeasy isolation kit according to the manufacturer's instruction (Qiagen, Hilden, Germany). 100 ng RNA was converted to cDNA using universal cDNA synthesis kit (Exiqon, Vedbaek, Denmark). RT-qPCR for the miR-451 was performed using Locked-nucleic Acid (LNA™) primers sets (Exiqon, Vedbaek, Denmark). 5S Ribosomal RNA was used as a reference gene. The RT-qPCR reactions were performed in duplicates on the LightCycler 480 (Roche, Rotkreuz, Switzerland) apparatus. The results were expressed as relative expression using the delta Ct method.
# MCF7 cells = experiment: In-vivo xenograft model, tumor growth by miR-451 expression; conditions: MCF7 xenograft in NSG mice; end of experiment; antagomiR-451 cells compared with miR-451 mimic
# Protocol: (§2) The effect of miR-451 expression levels on tumor cell growth was evaluated in an in-vivo xenograft mice model using MCF7 cells and PC3 cells. Ten million cells harboring antagomiR-451 and miR-451 mimic were injected subcutaneously into the right flanks of 6-8 weeks-old immunodeficient NSG (NOD scid gamma) mice. Ten mice were injected with the MCF7 antagomiR-451 cell line and 11 mice were injected with the miR-451 mimic line. Ten mice were injected with the PC3 antagomiR-451 cell line and the PC3 miR-451 mimic cell line and 8 with the scrambled miR control cell line. The volume of the tumors was measured daily from the day the tumors were clinically evident in all mice.
# PC3 cells = experiment: as above; conditions: PC3 xenograft in NSG mice; end of experiment; antagomiR-451 cells compared with miR-451 mimic
# Protocol: as §2
# miR-451 [6] = experiment: miR expression after transient transfection with miR-451 mimic; assay type: cell-based; conditions: PC-3, Caco-2, MCF7 cells transiently transfected, 200 pmol; compared to control cells transfected with scramble miR
# Protocol: (§3) A study was performed to determine if NAMPT is regulated by miR-451 in a representative cell line of each malignancy. Cells comprising prostate cancer (PC-3), colon cancer (Caco-2) and breast cancer (MCF7) cell lines were transiently transfected with a miR-451 mimic while “scrambled” miR-451 served as a control. The prostate cancer (PC-3), colon cancer (Caco-2), and breast cancer (MCF7) cells were obtained from ATCC and cultured according to ATCC growth recommendation. Two hundred pmol miR-451 mimic and 200 pmol scramble miR (IDT, Jerusalem, Israel) were transiently transfected by JETPRIME (Polyplus-transfection) into cells according to manufacturer's instructions.
# NAMPT protein expression was determined using FACS as follows: […]
# NAMPT = NAMPT protein expression by FACS in transfected cells; assay type: cell-based; conditions: PC-3, Caco-2 and MCF7 cell lines; 48 hours after transfection; compared to control scramble-miR cells
# Protocol: as §3
# One to two million transfected cells were collected 48 hours after transfection and fixed using 500 μl BD phosflow fix buffer I (BD Biosciences, San Jose, Calif., USA) for 15 minutes. Then, pellets were washed twice using PBS and resuspended in 500 μl methanol. Samples were incubated for 2 hours in −20° C. […] The cells were analyzed on flow cytometer (FACSCalibur, Becton Dickinson, Le Pont-De-Claix, France) using BD CellQuest™ Pro software.
# FIG. 1 presents NAMPT protein expression level analyzed by FACS using a specific anti-NAMPT antibody in prostate cancer (PC-3), colon cancer (Caco-2) and breast cancer (MCF7) cell lines.
molecule,measurement,setting,value
O=C(/C=C/c1cccnc1)NCCCCC1CCN(C(=O)c2ccccc2)CC1 [FK866],cell viability,[1],gradual decrease in cell viability
same,cell viability,[2],gradual decrease in cell viability
same,cell viability,[3],gradual decrease in cell viability
same,time of treatment until change in tumor size observed vs no treatment,"[4]; PC3 antagomiR-451 group, treatment started from day 13, 15 mg/kg",≤ 5 days
same,change in tumor growth between non-treated and treated group,[4]; mice injected with PC3 antagomiR-451 cells,major change in tumor growth
same,change in tumor growth between non-treated and treated group,[4]; mice injected with PC3 miR-451 mimic cells,moderate to almost no change in tumor growth
same,change in tumor growth between non-treated and treated group,[4]; mice injected with PC3 scramble miR control cells,moderate to almost no change in tumor growth
"antagomiR-451: SEQ ID NO: 3 is the nucleotide sequence of antagomiR-451 (antisense AATGATCTGTAACGGTTT; listed as DNA, chemistry not given here)",decrease in miR-451 expression,"miR-451 [5]; PC3 cells, compared to PC3 control cells",67%
same,tumor volume,MCF7 cells,significant increase in tumor volume
same,tumor volume,PC3 cells,significant increase in tumor volume
"miR-451 mimic: SEQ ID NO: 1 is the nucleotide sequence of miR-451 mimic (AAACCGUUACCAUUACUGAGUU; listed as RNA, chemistry not given here)",level in miR-451,"miR-451 [5]; MCF7 cells, mimic compared with MCF7 cells transfected with antagomiR-451",twice as high
same,increase in miR-451 expression,"miR-451 [5]; PC3 cells, compared with control (PC3 cells transfected with miR scramble)",tenfold increase
same,increase in the expression levels of the miR,miR-451 [6],3 fold
same,NAMPT protein expression level,NAMPT,reduction in NAMPT expression
